Target: T1, FAAH (Rattus norvegicus, UniProt P97612)
T1 construct: Frozen brains (without cerebellum) from Wistar rats were used; from tissue; host or cells: Wistar rat brain (without cerebellum), washed membrane pellets
T1 sequence (P97612 1-579): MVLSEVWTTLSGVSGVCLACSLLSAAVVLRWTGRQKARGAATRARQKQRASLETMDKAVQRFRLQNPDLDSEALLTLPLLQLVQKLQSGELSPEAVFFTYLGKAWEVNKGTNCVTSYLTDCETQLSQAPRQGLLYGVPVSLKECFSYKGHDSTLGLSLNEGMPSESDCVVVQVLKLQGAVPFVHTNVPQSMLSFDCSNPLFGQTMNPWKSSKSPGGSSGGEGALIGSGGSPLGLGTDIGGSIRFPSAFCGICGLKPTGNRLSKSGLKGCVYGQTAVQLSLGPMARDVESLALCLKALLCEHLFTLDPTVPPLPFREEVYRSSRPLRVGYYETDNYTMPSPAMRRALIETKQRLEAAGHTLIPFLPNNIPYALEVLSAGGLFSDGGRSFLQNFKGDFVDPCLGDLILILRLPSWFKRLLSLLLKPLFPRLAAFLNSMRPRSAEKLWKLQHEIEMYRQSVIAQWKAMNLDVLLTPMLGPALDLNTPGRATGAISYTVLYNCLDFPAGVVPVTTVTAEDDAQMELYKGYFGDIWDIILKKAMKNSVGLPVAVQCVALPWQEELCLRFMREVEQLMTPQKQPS
Test: In vitro FAAH activity in rat brain membranes, 3H-AEA substrate, % of control
Type: biochemical, Wistar rats
Details: 100 nM test compound, low value = strong inhibitor
Protocol: 3. Biological Efficacy of Compounds of the Invention The in vitro test was performed according to the protocol described below. The controls for both in vitro and in vivo were the reaction mix minus the test compounds. Therefore, a low value in Table 1 below for the test compounds indicates a strong inhibitor.
The in vitro pharmaceutical FAAH activity was determined according to the following method:
Frozen brains (without cerebellum) from Wistar rats were used, and each brain was homogenized in 15 ml 1 mM MgCL2, […] HEPES pH 7.0 with Potter Elvejhem (8 strokes at 500 rpm). Homogenates were centrifuged for 20 min at 36000 g at 4° C. (Beckman, 70Ti rotor). Pellets were resuspended in 15 ml of the same buffer and centrifuged under the same conditions. Pellets were resuspended in 15 ml of the same buffer and incubated for 15 min at 37° C. after which they were centrifuged for 20 min at 36000 g at 4° C. Each pellet was then resuspended in 15 ml 3 mM MgCl2, 1 mM EDTA, 50 mM Tris pH 7.4 and protein determined with BioRad Protein Assay (BioRad) using a standard curve of BSA (50-250 μg/ml). The membrane suspensions were aliquoted and stored at −80° C.
The FAAH activity was determined using AEA (labelled with 3H in the ethanolamine part of the molecule) as substrate and measuring the 3H-ethanolamine formed. Reaction mix (total volume of 200 up contained: 2 μM AEA (2 μM AEA+5 nM 3H-AEA), 0.1% fatty acid free BSA, 5 μg protein, in 1 mM EDTA, 10 mM Tris pH 7.6 and 10 μM or 0.1 μM compounds. Stock solutions of the compounds to test (10 mM) were prepared in 100% DMSO and the DMSO concentration in the assay was 0.1%. After a 15 min preincubation period at 37° C., reaction was started by the addition of the substrate solution ([…]). Reaction was carried out for 10 min before termination by the addition of 400 μl activated charcoal suspension (8 g charcoal in 32 ml 0.5 M HCl in continuous agitation). After a 30 min incubation period at room temperature with agitation, charcoal was sedimented by centrifugation in microfuge (10 min at 13000 rpm). 200 μl of the supernatant were added to 800 μl Optiphase Supermix scintillation cocktail previously distributed in 24-well plates. Counts per minute (cpm) were determined in Microbeta TriLux scintillation counter (10 min counting or until s=2).
In each assay blanks (no protein, usually below 200 cpm) and controls (no compound) were present. The results are reported in Table 1 as % of control after blank subtraction.

Structure (SMILES)	In Vitro FAAH activity, 100 nM
O=C(N1CCC(c2ccccc2)CC1)n1nnc2ccccc21 [Compound 94, (1H-benzo[d][1,2,3]triazol-1-yl)(4-phenylpiperidin-1-yl)methanone]	0 % of control
CN(C(=O)n1nnc2cc(-c3cccc(C#N)c3)ccc21)C1CCCCC1 [Compound 95, 5-(3-cyanophenyl)-N-cyclohexyl-N-methyl-1H-benzo[d][1,2,3]triazole-1-carboxamide]	0.7 % of control
CN(C(=O)n1nnc2cc(-c3ccc(F)cc3)ccc21)C1CCCCC1 [Compound 96, N-cyclohexyl-5-(4-fluorophenyl)-N-methyl-1H-benzo[d][1,2,3]triazole-1-carboxamide]	14.3 % of control
O=C(N1CCCC1)n1nnc2ccccc21 [Compound 98, (1H-benzo[d][1,2,3]triazol-1-yl)(pyrrolidin-1-yl)methanone]	0.6 % of control
O=C(N1CCN(c2ccccc2)CC1)n1cnc(-c2ccccc2)c1 [Compound 101, (4-phenyl-1H-imidazol-1-yl)(4-phenylpiperazin-1-yl)methanone]	0.5 % of control
O=C(N1CCN(Cc2ccccc2)CC1)n1cnc(-c2ccccc2)c1 [Compound 102, (4-benzylpiperazin-1-yl)(4-phenyl-1H-imidazol-1-yl)methanone]	0.9 % of control
CN(C(=O)n1cnc(-c2ccccc2)c1)C1CCCCC1 [Compound 103, N-cyclohexyl-N-methyl-4-phenyl-1H-imidazole-1-carboxamide]	37.5 % of control
CCN(C(=O)n1nnc2ccccc21)C1CCCCC1 [Compound 104, N-cyclohexyl-N-ethyl-1H-benzo[d][1,2,3]triazole-1-carboxamide]	94.2 % of control
Cl.O=C(N1CCC(CCN2CCCC2)CC1)n1nnc2ccccc21 [Compound 105, (1H-benzo[d][1,2,3]triazol-1-yl)(4-(2-(pyrrolidin-1-yl)ethyl)piperidin-1-yl)methanone hydrochloride]	64.7 % of control
CN(C(=O)n1nnc2ccc(-c3ccc(F)cc3)cc21)C1CCCCC1 [Compound 106, N-cyclohexyl-6-(4-fluorophenyl)-N-methyl-1H-benzo[d][1,2,3]triazole-1-carboxamide]	2.3 % of control
CN(C(=O)n1nnc2cc(-c3cccc(C(=O)O)c3)ccc21)C1CCCCC1 [Compound 107, 3-(1-(cyclohexyl(methyl)carbamoyl)-1H-benzo[d][1,2,3]triazol-5-yl)benzoic acid]	13.5 % of control
CN(C(=O)n1nnc2cc(-c3cccc(C(N)=O)c3)ccc21)C1CCCCC1 [Compound 108, 5-(3-carbamoylphenyl)-N-cyclohexyl-N-methyl-1H-benzo[d][1,2,3]triazole-1-carboxamide]	7.4 % of control
CN(C(=O)n1nnc2ccc(-c3cccc(C(N)=O)c3)cc21)C1CCCCC1 [Compound 109, 6-(3-carbamoylphenyl)-N-cyclohexyl-N-methyl-1H-benzo[d][1,2,3]triazole-1-carboxamide]	0 % of control
O=C(N1CCN(c2ccccc2)CC1)n1cnc(-c2ccccc2)n1 [Compound 111, (3-phenyl-1H-1,2,4-triazol-1-yl)(4-phenylpiperazin-1-yl)methanone]	1.5 % of control
NC(=O)c1ccc(-c2cn(C(=O)N3CCN(Cc4ccccc4)CC3)cn2)cc1 [Compound 112, 4-(1-(4-benzylpiperazine-1-carbonyl)-1H-imidazol-4-yl)benzamide]	7.2 % of control
CN(CCc1ccccc1)C(=O)n1nnc2ccccc21 [Compound 115, N-methyl-N-phenethyl-1H-benzo[d][1,2,3]triazole-1-carboxamide]	0 % of control
O=C(N1CCC(Oc2ccc(Cl)cc2)CC1)n1nnc2ccccc21 [Compound 117, (1H-benzo[d][1,2,3]triazol-1-yl)(4-(4-chlorophenoxy)piperidin-1-yl)methanone]	0.1 % of control
CN(CCCc1ccccc1)C(=O)n1nnc2ccccc21 [Compound 118, N-methyl-N-(3-phenylpropyl)-1H-benzo[d][1,2,3]triazole-1-carboxamide]	0 % of control
COc1cccc(CN(C)C(=O)n2nnc3ccccc32)c1 [Compound 119, N-(3-methoxybenzyl)-N-methyl-1H-benzo[d][1,2,3]triazole-1-carboxamide]	0 % of control
O=C(N1CCC(Oc2ccccc2)CC1)n1nnc2ccccc21 [Compound 120, (1H-benzo[d][1,2,3]triazol-1-yl)(4-phenoxypiperidin-1-yl)methanone]	0.1 % of control
CN1CCN(C2CCN(C(=O)n3nnc4ccccc43)CC2)CC1.Cl [Compound 122, (1H-benzo[d][1,2,3]triazol-1-yl)(4-(4-methylpiperazin-1-yl)piperidin-1-yl)methanone hydrochloride]	93 % of control
CN(Cc1cccc(Cl)c1)C(=O)n1nnc2ccccc21 [Compound 123, N-(3-chlorobenzyl)-N-methyl-1H-benzo[d][1,2,3]triazole-1-carboxamide]	0 % of control
Cl.O=C(N1CCN(Cc2ccccc2)CC1)n1cnc(-c2ccccc2)n1 [Compound 124, (4-benzylpiperazin-1-yl)(3-phenyl-1H-1,2,4-triazol-1-yl)methanone hydrochloride]	1.5 % of control
Cl.O=C(N1CCN(Cc2ccccc2)CC1)n1cnc(-c2ccc(OCc3ccccc3)cc2)n1 [Compound 125, (3-(4-(benzyloxy)phenyl)-1H-1,2,4-triazol-1-yl)(4-benzylpiperazin-1-yl)methanone hydrochloride]	53.5 % of control
O=C(N1CCC(OCc2ccccc2)CC1)n1nnc2ccccc21 [Compound 128, (1H-benzo[d][1,2,3]triazol-1-yl)(4-(benzyloxy)piperidin-1-yl)methanone]	0 % of control
CN(Cc1ccc(F)cc1)C(=O)n1nnc2ccccc21 [Compound 130, N-(4-fluorobenzyl)-N-methyl-1H-benzo[d][1,2,3]triazole-1-carboxamide]	0 % of control
CN(Cc1ccc2ccccc2c1)C(=O)n1nnc2ccccc21 [Compound 131, N-methyl-N-(naphthalen-2-ylmethyl)-1H-benzo[d][1,2,3]triazole-1-carboxamide]	0 % of control
Cc1ccc(OC2CCN(C(=O)n3cnc(-c4ccc(N5CCN(C)CC5)cc4)n3)CC2)cc1.Cl [Compound 132, (3-(4-(4-methylpiperazin-1-yl)phenyl)-1H-1,2,4-triazol-1-yl)(4-(p-tolyloxy)piperidin-1-yl)methanone hydrochloride]	85.1 % of control
O=C(N1CCOCC1)n1cnc(-c2ccc(N3CCN(Cc4ccccc4)CC3)cc2)n1 [Compound 133, (3-(4-(4-benzylpiperazin-1-yl)phenyl)-1H-1,2,4-triazol-1-yl)(morpholino)methanone]	90.7 % of control

Same assay, conditions: 10 uM test compound, low value = strong inhibitor

Structure (SMILES)	In Vitro FAAH activity, 10 uM
CN(C(=O)n1cnc(-c2ccccc2)c1)C1CCCCC1 [Compound 103, N-cyclohexyl-N-methyl-4-phenyl-1H-imidazole-1-carboxamide]	0 % of control

Reference: patent US9353082B2, “Pharmaceutical compounds” (BIAL—PORTELA & CA, S.A., priority 2008, dated 2016)
